Reference: patent US20130230459A1, “RADIOLABELLED mGluR2 PET LIGANDS” (Janssen Pharmaceuticals, Inc., priority 2010, published 2013)
“And” between values parts separate entries of the source, which are not always exact repeats. Equal values may be shown once. Each block holds one compound with its values, some of them ahead of it.

Assay: Biodistribution studies of 11C tracers
Type: in vivo, Wistar rats
Conditions: for SUV Blood / SUV Cerebellum / SUV Cerebrum total / SUV Cortex / SUV Hippocampus / SUV Striatum: normalized for body weight; for % ID present in the carcass: at all time points examined
Experimental: Biodistribution studies were carried out in healthy male Wistar rats (body weight 200-450 g) at 2 min, 30 min and 60 min post injection (p.i.) (n=3/time point). Rats were injected with about 11 MBq (2 min, 30 min analysis) or 22 MBq (60 min analysis) of the tracer via tail vein under anesthesia (2.5% isoflurane in O2 at 1 L/min flow rate) and sacrificed by decapitation at above specified time points. Blood and major organs were collected in tared tubes and weighed. The radioactivity in blood, organs and other body parts was measured using an automated gamma counter. The distribution of radioactivity in different parts of the body at different time points p.i. of the tracer was calculated and expressed as percentage of injected dose (% ID), and as percentage of injected dose per gram tissue (% ID/g) for the selected organs. % ID is calculated as cpm in organ/total cpm recovered. For calculation of total radioactivity in blood, blood mass was assumed to be 7% of the body mass.

% ID Blood (2 min p.i.): 6.5 % ID and 6.5 ± 0.9 % ID | % ID Carcass (2 min p.i.): 43.5 ± 1.4 % ID | % ID Cerebellum (2 min p.i.): 0.17 % ID and 0.170 ± 0.012 % ID | % ID Cerebrum total (2 min p.i.): 0.45 % ID and 0.446 ± 0.073 % ID | % ID Cortex (2 min p.i.): 0.068 ± 0.015 % ID | % ID Heart (2 min p.i.): 4.1 ± 0.1 % ID | % ID Hippocampus (2 min p.i.): 0.019 ± 0.000 % ID | % ID Intestines (2 min p.i.): 7.6 ± 0.5 % ID | % ID Kidneys (2 min p.i.): 6.8 ± 0.7 % ID | % ID Liver (2 min p.i.): 30.2 ± 0.9 % ID | % ID Lungs (2 min p.i.): 1.8 ± 0.5 % ID | % ID Rest of cerebrum (2 min p.i.): 0.359 ± 0.086 % ID | % ID Spleen + Pancreas (2 min p.i.): 1.4 ± 0.1 % ID | % ID Stomach (2 min p.i.): 1.3 ± 0.2 % ID | % ID Striatum (2 min p.i.): 0.022 ± 0.002 % ID | % ID Urine (2 min p.i.): 0.1 ± 0.0 % ID | Total brain uptake (2 min p.i.): 0.65 % ID and 0.65 ± 0.1 % ID | % ID Blood (30 min p.i.): 2.9 ± 0.1 % ID | % ID Carcass (30 min p.i.): 61.8 ± 2.1 % ID | % ID Cerebellum (30 min p.i.): 0.201 ± 0.016 % ID | % ID Cerebrum total (30 min p.i.): 0.723 ± 0.103 % ID | % ID Cortex (30 min p.i.): 0.078 ± 0.020 % ID | % ID Heart (30 min p.i.): 1.7 ± 0.2 % ID | % ID Hippocampus (30 min p.i.): 0.028 ± 0.006 % ID | % ID Intestines (30 min p.i.): 9.9 ± 1.4 % ID | % ID Kidneys (30 min p.i.): 3.0 ± 0.4 % ID | % ID Liver (30 min p.i.): 17.0 ± 1.1 % ID | % ID Lungs (30 min p.i.): 0.8 ± 0.1 % ID | % ID Rest of cerebrum (30 min p.i.): 0.580 ± 0.081 % ID | % ID Spleen + Pancreas (30 min p.i.): 1.0 ± 0.2 % ID | % ID Stomach (30 min p.i.): 2.3 ± 0.5 % ID | % ID Striatum (30 min p.i.): 0.037 ± 0.005 % ID | % ID Urine (30 min p.i.): 0.3 ± 0.1 % ID | Total brain uptake (30 min p.i.): 0.95 ± 0.1 % ID | % ID Blood (60 min p.i.): 3.6 % ID and 3.6 ± 0.2 % ID | % ID Carcass (60 min p.i.): 57.8 ± 1.9 % ID | % ID Cerebellum (60 min p.i.): 0.155 ± 0.024 % ID | % ID Cerebrum total (60 min p.i.): 0.597 ± 0.062 % ID | % ID Cortex (60 min p.i.): 0.074 ± 0.021 % ID | % ID Heart (60 min p.i.): 1.0 ± 0.1 % ID | % ID Hippocampus (60 min p.i.): 0.024 ± 0.003 % ID | % ID Intestines (60 min p.i.): 12.0 ± 1.1 % ID | % ID Kidneys (60 min p.i.): 1.9 ± 0.3 % ID | % ID Liver (60 min p.i.): 18.6 ± 1.0 % ID | % ID Lungs (60 min p.i.): 0.6 ± 0.1 % ID | % ID Rest of cerebrum (60 min p.i.): 0.468 ± 0.054 % ID | % ID Spleen + Pancreas (60 min p.i.): 0.8 ± 0.0 % ID | % ID Stomach (60 min p.i.): 4.3 ± 1.8 % ID | % ID Striatum (60 min p.i.): 0.031 ± 0.003 % ID | % ID Urine (60 min p.i.): 0.6 ± 0.1 % ID | % ID present in liver and intestines (60 min p.i.): 30.6 % ID | % ID present in the urinary system (60 min p.i.): 2.5 % ID | Total brain uptake (60 min p.i.): 0.76 ± 0.1 % ID | % ID present in the carcass: ~54 % ID
SMILES: [11CH3]Oc1cccc(F)c1C1CCN(c2ccn3c(CC4CC4)nnc3c2Cl)CC1 [[^11C]B-6, 8-chloro-3-(cyclopropylmethyl)-7-[4-[2-fluoro-6-[^11C]methoxyphenyl]-1-piperidinyl]-1,2,4-triazolo[4,3-a]pyridine]
SUV Blood (2 min p.i.): 0.90 ± 0.01 | SUV Cerebellum (2 min p.i.): 1.62 ± 0.00 | SUV Cerebrum total (2 min p.i.): 1.00 ± 0.02 | SUV Cortex (2 min p.i.): 1.04 ± 0.00 | SUV Hippocampus (2 min p.i.): 0.86 ± 0.01 | SUV Striatum (2 min p.i.): 1.01 ± 0.01 | SUV Blood (30 min p.i.): 0.40 ± 0.00 | SUV Cerebellum (30 min p.i.): 2.28 and 2.28 ± 0.01 | SUV Cerebrum total (30 min p.i.): 1.66 ± 0.02 | SUV Cortex (30 min p.i.): 1.47 ± 0.03 | SUV Hippocampus (30 min p.i.): 1.36 ± 0.01 | SUV Striatum (30 min p.i.): 1.70 ± 0.01 | SUV Blood (60 min p.i.): 0.50 ± 0.00 | SUV Cerebellum (60 min p.i.): 1.57 ± 0.01 | SUV Cerebrum total (60 min p.i.): 1.24 ± 0.01 | SUV Cortex (60 min p.i.): 1.01 ± 0.01 | SUV Hippocampus (60 min p.i.): 1.02 ± 0.01 | SUV Striatum (60 min p.i.): 1.46 ± 0.01

SMILES: [11CH3]Oc1c(F)ccc(F)c1C1CCN(c2ccn3c(CC4CC4)nnc3c2C(F)(F)F)CC1 [[^11C]B-3, 3-(cyclopropylmethyl)-7-[4-[3,6-difluoro-2-[^11C]methoxyphenyl]-1-piperidinyl]-8-(trifluoromethyl)-1,2,4-triazolo[4,3-a]pyridine]
% ID Blood (2 min p.i.): 8.5 % ID and 8.5 ± 1.9 % ID | % ID Carcass (2 min p.i.): 36.0 ± 0.7 % ID | % ID Cerebellum (2 min p.i.): 0.17 % ID and 0.165 ± 0.009 % ID | % ID Cerebrum total (2 min p.i.): 0.54 % ID and 0.536 ± 0.048 % ID | % ID Cortex (2 min p.i.): 0.062 ± 0.009 % ID | % ID Heart (2 min p.i.): 4.8 ± 0.4 % ID | % ID Hippocampus (2 min p.i.): 0.017 ± 0.002 % ID | % ID Intestines (2 min p.i.): 9.4 ± 0.8 % ID | % ID Kidneys (2 min p.i.): 8.8 ± 0.7 % ID | % ID Liver (2 min p.i.): 28.7 ± 2.1 % ID | % ID Lungs (2 min p.i.): 3.7 ± 1.7 % ID | % ID Rest of cerebrum (2 min p.i.): 0.457 ± 0.050 % ID | % ID Spleen + Pancreas (2 min p.i.): 2.0 ± 0.1 % ID | % ID Stomach (2 min p.i.): 1.5 ± 0.4 % ID | % ID Striatum (2 min p.i.): 0.028 ± 0.002 % ID | % ID Urine (2 min p.i.): 0.1 ± 0.0 % ID | Total brain uptake (2 min p.i.): 0.75 % ID and 0.75 ± 0.0 % ID | SUV Blood (2 min p.i.): 1.20 ± 0.03 | SUV Cerebellum (2 min p.i.): 1.54 and 1.54 ± 0.01 | SUV Cerebrum total (2 min p.i.): 1.09 ± 0.01 | SUV Cortex (2 min p.i.): 1.03 ± 0.00 | SUV Hippocampus (2 min p.i.): 0.85 ± 0.01 | SUV Striatum (2 min p.i.): 0.99 ± 0.00 | % ID Blood (30 min p.i.): 2.6 ± 0.7 % ID | % ID Carcass (30 min p.i.): 46.7 ± 7.8 % ID | % ID Cerebellum (30 min p.i.): 0.142 ± 0.042 % ID | % ID Cerebrum total (30 min p.i.): 0.489 ± 0.121 % ID | % ID Cortex (30 min p.i.): 0.071 ± 0.031 % ID | % ID Heart (30 min p.i.): 1.7 ± 0.7 % ID | % ID Hippocampus (30 min p.i.): 0.019 ± 0.006 % ID | % ID Intestines (30 min p.i.): 8.9 ± 1.4 % ID | % ID Kidneys (30 min p.i.): 3.4 ± 1.0 % ID | % ID Liver (30 min p.i.): 31.3 ± 9.7 % ID | % ID Lungs (30 min p.i.): 0.5 ± 0.2 % ID | % ID Rest of cerebrum (30 min p.i.): 0.373 ± 0.084 % ID | % ID Spleen + Pancreas (30 min p.i.): 1.1 ± 0.3 % ID | % ID Stomach (30 min p.i.): 3.8 ± 1.4 % ID | % ID Striatum (30 min p.i.): 0.027 ± 0.007 % ID | % ID Urine (30 min p.i.): 0.5 ± 0.1 % ID | Total brain uptake (30 min p.i.): 0.64 ± 0.2 % ID | SUV Blood (30 min p.i.): 0.40 ± 0.01 | SUV Cerebellum (30 min p.i.): 1.54 and 1.54 ± 0.04 | SUV Cerebrum total (30 min p.i.): 1.11 ± 0.03 | SUV Cortex (30 min p.i.): 1.00 ± 0.03 | SUV Hippocampus (30 min p.i.): 0.84 ± 0.02 | SUV Striatum (30 min p.i.): 1.15 ± 0.04 | % ID Blood (60 min p.i.): 2.9 % ID and 2.9 ± 0.4 % ID | % ID Carcass (60 min p.i.): 44.2 ± 10.9 % ID | % ID Cerebellum (60 min p.i.): 0.142 ± 0.050 % ID | % ID Cerebrum total (60 min p.i.): 0.499 ± 0.168 % ID | % ID Cortex (60 min p.i.): 0.069 ± 0.027 % ID | % ID Heart (60 min p.i.): 1.1 ± 0.6 % ID | % ID Hippocampus (60 min p.i.): 0.023 ± 0.011 % ID | % ID Intestines (60 min p.i.): 14.8 ± 1.7 % ID | % ID Kidneys (60 min p.i.): 2.4 ± 0.9 % ID | % ID Liver (60 min p.i.): 23.6 ± 12.9 % ID | % ID Lungs (60 min p.i.): 0.7 ± 0.3 % ID | % ID Rest of cerebrum (60 min p.i.): 0.371 ± 0.119 % ID | % ID Spleen + Pancreas (60 min p.i.): 0.9 ± 0.3 % ID | % ID Stomach (60 min p.i.): 9.6 ± 2.2 % ID | % ID Striatum (60 min p.i.): 0.036 ± 0.014 % ID | % ID Urine (60 min p.i.): 0.4 ± 0.1 % ID | % ID present in liver and intestines (60 min p.i.): 38.4 % ID | % ID present in the urinary system (60 min p.i.): 2.8 % ID | Total brain uptake (60 min p.i.): 0.66 ± 0.2 % ID | SUV Blood (60 min p.i.): 0.40 ± 0.01 | SUV Cerebellum (60 min p.i.): 1.84 ± 0.07 | SUV Cerebrum total (60 min p.i.): 1.38 ± 0.05 | SUV Cortex (60 min p.i.): 1.13 ± 0.04 | SUV Hippocampus (60 min p.i.): 1.11 ± 0.04 | SUV Striatum (60 min p.i.): 1.76 ± 0.07 | % ID present in the carcass: ~42 % ID
